Laboratory results reported in ChEMBL document CHEMBL5523699, “Exploring novel pyrazole-nitroimidazole hybrids: Synthesis and antiprotozoal activity against the human pathogen trichomonas vaginalis” (Bioorg Med Chem, 2024).

Key:
[1] = Cytotoxicity against human HeLa cells assessed as reduction in cell viability incubated for 24 hrs by MTT assay; type: toxicity, cell-based
[2] = Selectivity index, ratio of CC50 for cytotoxicity against human […] cells incubated for 24 hrs to IC50 for antiparasitic activity against Trichomonas vaginalis JT assessed as inhibition of parasite growth incubated for 24 hrs; type: toxicity, cell-based; conditions: read-out: Ratio CC50/IC50
[3] = Cytotoxicity against human HeLa cells assessed as reduction in cell viability incubated for 48 hrs by MTT assay; type: toxicity, cell-based
[4] = Selectivity index, ratio of CC50 for cytotoxicity against human […] cells incubated for 48 hrs to IC50 for antiparasitic activity against Trichomonas vaginalis JT assessed as inhibition of parasite growth incubated for 48 hrs; type: toxicity, cell-based; conditions: read-out: Ratio CC50/IC50
Trichomonas vaginalis [5] = experiment: Antiparasitic activity against Trichomonas vaginalis JT assessed as inhibition of parasite growth incubated for 48 hrs by flow cytometric analysis; type: functional, organism-based
Trichomonas vaginalis [6] = experiment: Potency index, ratio of metronidazole IC50 to test compound IC50 for antiparasitic activity against Trichomonas vaginalis JT assessed as inhibition of parasite growth incubated for 48 hrs by flow cytometric analysis; type: functional
Trichomonas vaginalis [7] = experiment: Selectivity index, ratio of IC50 for antiparasitic activity against Trichomonas vaginalis JT assessed as inhibition of parasite growth incubated for 24 hrs to IC50 for antiparasitic activity against Trichomonas vaginalis JT assessed as inhibition of parasite growth incubated for 48 hrs; type: functional
Trichomonas vaginalis [8] = experiment: Antiparasitic activity against Trichomonas vaginalis JT assessed as inhibition of parasite growth incubated for 24 hrs by flow cytometric analysis; type: functional, organism-based
Trichomonas vaginalis [9] = experiment: Selectivity index, ratio of IC50 for antiparasitic activity against Trichomonas vaginalis JT assessed as inhibition of parasite growth incubated for 48 hrs to IC50 for antiparasitic activity against Trichomonas vaginalis JT assessed as inhibition of parasite growth incubated for 24 hrs; type: functional

Row | SMILES | CC50 at 24 h [1] [µM] | selectivity ratio at 24 h [2] | CC50 at 48 h [3] [µM] | selectivity ratio at 48 h [4] | IC50 (Trichomonas vaginalis [5]) [µM] | Ratio IC50 (Trichomonas vaginalis [6]) | Ratio IC50 (Trichomonas vaginalis [7]) | IC50 (Trichomonas vaginalis [8]) [µM] | Ratio IC50 (Trichomonas vaginalis [9])
1 | O=C(OCCn1cnc([N+](=O)[O-])c1)c1cnn(-c2ccc(F)cc2)c1 | 214 | 21 | 182 | 48.2 | 3.8 | <=19.2 | ~2.5 | 10.1 | 
2 | O=C(OCCn1cnc([N+](=O)[O-])c1)c1cnn(-c2ccc(Cl)c(Cl)c2)c1 | 584 | 110 | 313 | 8.81 | 35.5 |  |  | 5.3 | 
3 | O=[N+]([O-])c1cn(CCO)cn1 | 120 | 6 | 212 | 5.22 | 40.6 |  |  | 19.9 | 
4 | O=C(OCCn1cnc([N+](=O)[O-])c1)c1cnn(-c2ccc(Cl)cc2)c1 | 195 | 40.3 | 177 | 17 | 10.3 |  |  | 4.8 | ~2
5 | O=C(OCCn1cnc([N+](=O)[O-])c1)c1cnn(-c2cccc(Br)c2)c1 | 148 | 28.1 | 111 | 53.8 | 2.1 | <=19.2 | ~2.5 | 5.2 | 
6 | COc1ccc(-n2cc(C(=O)OCCn3cnc([N+](=O)[O-])c3)cn2)cc1 | 211 | 11.1 | 141 | 5.78 | 24.4 |  |  | 18.8 | 
7 | O=C(OCCn1cnc([N+](=O)[O-])c1)c1cnn(-c2ccccc2)c1 | 236 | 31.4 | 98 | 7.7 | 12.6 |  |  | 7.5 | 
8 | O=C(OCCn1cnc([N+](=O)[O-])c1)c1cnn(-c2ccc(Br)cc2)c1 | 69.3 | 4.6 | 90.4 | 4.86 | 18.6 |  |  | 15 | 
9 | O=C(OCCn1cnc([N+](=O)[O-])c1)c1cnn(-c2cccc(F)c2)c1 | 185 | 10.1 | 100 | 5.58 | 18 |  |  | 18.2 | 
10 | Cc1ncc([N+](=O)[O-])n1CCO [METRONIDAZOLE] | 666 | 136 | 286 | 7.19 | 39.7 |  |  | 4.9 | 
11 | O=C(OCCn1cnc([N+](=O)[O-])c1)c1cnn(-c2cccc(Cl)c2)c1 | 218 | 21 | 84.9 | 10.5 | 8 |  |  | 10.3 | 
12 | O=C(OCCn1cnc([N+](=O)[O-])c1)c1cnn(-c2cc(Cl)cc(Cl)c2)c1 | 266 | 19.2 | 164 | 37 | 4.4 | <=19.2 |  | 13.8 | 
